Results as given in the CheMixHub viscosity set.
± gives the uncertainty stated by the source.

Assay: xn = mol fraction of the nth substance listed

CCCC[P+](CCCC)(CCCC)CCCC.[Cl-] + O
viscosity (298.15 K, 100 kPa, x1 = 0.008058): 1.485 ± 0.031 mPa·s

NCCO.O=CO + CC(C)(N)CO
viscosity (298.15 K, 100 kPa, x1 = 0.1475): 170.6 ± 69 mPa·s
viscosity (298.15 K, 100 kPa, x1 = 0.2287): 165.1 ± 66 mPa·s
viscosity (298.15 K, 100 kPa, x1 = 0.3157): 148.3 ± 60 mPa·s
viscosity (298.15 K, 100 kPa, x1 = 0.409): 126.5 ± 51 mPa·s
viscosity (298.15 K, 100 kPa, x1 = 0.5093): 107.4 ± 43 mPa·s
viscosity (298.15 K, 100 kPa, x1 = 0.6175): 84.75 ± 34 mPa·s
viscosity (298.15 K, 100 kPa, x1 = 0.7346): 64.21 ± 26 mPa·s
viscosity (303.15 K, 100 kPa, x1 = 0.1475): 118.8 ± 48 mPa·s
viscosity (303.15 K, 100 kPa, x1 = 0.2287): 113 ± 45 mPa·s
viscosity (303.15 K, 100 kPa, x1 = 0.3157): 103.2 ± 41 mPa·s
viscosity (303.15 K, 100 kPa, x1 = 0.409): 90.68 ± 36 mPa·s
viscosity (303.15 K, 100 kPa, x1 = 0.5093): 78.55 ± 31 mPa·s
viscosity (303.15 K, 100 kPa, x1 = 0.6175): 62.99 ± 25 mPa·s
viscosity (303.15 K, 100 kPa, x1 = 0.7346): 49.24 ± 20 mPa·s
viscosity (308.15 K, 100 kPa, x1 = 0.1475): 82.33 ± 33 mPa·s
viscosity (308.15 K, 100 kPa, x1 = 0.2287): 79.18 ± 32 mPa·s
viscosity (308.15 K, 100 kPa, x1 = 0.3157): 74.33 ± 30 mPa·s
viscosity (308.15 K, 100 kPa, x1 = 0.409): 66.23 ± 27 mPa·s
viscosity (308.15 K, 100 kPa, x1 = 0.5093): 58.35 ± 23 mPa·s
viscosity (308.15 K, 100 kPa, x1 = 0.6175): 47.99 ± 19 mPa·s
viscosity (308.15 K, 100 kPa, x1 = 0.7346): 38.25 ± 15 mPa·s
viscosity (313.15 K, 100 kPa, x1 = 0.1475): 58.68 ± 23 mPa·s
viscosity (313.15 K, 100 kPa, x1 = 0.2287): 57.28 ± 23 mPa·s
viscosity (313.15 K, 100 kPa, x1 = 0.3157): 54.44 ± 22 mPa·s
viscosity (313.15 K, 100 kPa, x1 = 0.409): 49.47 ± 20 mPa·s
viscosity (313.15 K, 100 kPa, x1 = 0.5093): 44.41 ± 18 mPa·s
viscosity (313.15 K, 100 kPa, x1 = 0.6175): 37.11 ± 15 mPa·s
viscosity (313.15 K, 100 kPa, x1 = 0.7346): 30.16 ± 12 mPa·s
viscosity (318.15 K, 100 kPa, x1 = 0.1475): 42.89 ± 17 mPa·s
viscosity (318.15 K, 100 kPa, x1 = 0.2287): 42.1 ± 17 mPa·s
viscosity (318.15 K, 100 kPa, x1 = 0.3157): 40.82 ± 16 mPa·s
viscosity (318.15 K, 100 kPa, x1 = 0.409): 37.69 ± 15 mPa·s
viscosity (318.15 K, 100 kPa, x1 = 0.5093): 34.31 ± 14 mPa·s
viscosity (318.15 K, 100 kPa, x1 = 0.6175): 29.35 ± 12 mPa·s
viscosity (318.15 K, 100 kPa, x1 = 0.7346): 24.25 ± 9.7 mPa·s
viscosity (323.15 K, 100 kPa, x1 = 0.1475): 31.84 ± 13 mPa·s
viscosity (323.15 K, 100 kPa, x1 = 0.2287): 31.65 ± 13 mPa·s
viscosity (323.15 K, 100 kPa, x1 = 0.3157): 31.24 ± 12 mPa·s
viscosity (323.15 K, 100 kPa, x1 = 0.409): 29.32 ± 12 mPa·s
viscosity (323.15 K, 100 kPa, x1 = 0.5093): 27.04 ± 11 mPa·s
viscosity (323.15 K, 100 kPa, x1 = 0.6175): 23.55 ± 9.4 mPa·s
viscosity (323.15 K, 100 kPa, x1 = 0.7346): 19.78 ± 7.9 mPa·s

Cc1ccc(C)cc1 + c1ccccc1
viscosity (293.15 K, 101.33 kPa, x2 = 0.2202): 0.631 ± 0.0056 mPa·s
viscosity (293.15 K, 101.33 kPa, x2 = 0.42): 0.623 ± 0.0056 mPa·s
viscosity (293.15 K, 101.33 kPa, x2 = 0.7393): 0.627 ± 0.0056 mPa·s
viscosity (293.15 K, 101.33 kPa, x2 = 0.8207): 0.628 ± 0.0056 mPa·s
viscosity (298 K, 101.3 kPa, x2 = 0.2099): 0.603 ± 0.008 mPa·s
viscosity (298 K, 101.3 kPa, x2 = 0.3766): 0.596 ± 0.007 mPa·s
viscosity (298 K, 101.3 kPa, x2 = 0.5839): 0.596 ± 0.007 mPa·s
viscosity (298 K, 101.3 kPa, x2 = 0.7205): 0.596 ± 0.007 mPa·s
viscosity (298 K, 101.3 kPa, x2 = 0.8802): 0.599 ± 0.006 mPa·s
viscosity (303 K, 101 kPa, x1 = 0.1002): 0.5613 ± 0.0039 mPa·s
viscosity (303 K, 101 kPa, x1 = 0.2018): 0.5603 ± 0.004 mPa·s
viscosity (303 K, 101 kPa, x1 = 0.3012): 0.5605 ± 0.0041 mPa·s
viscosity (303 K, 101 kPa, x1 = 0.397): 0.5611 ± 0.0041 mPa·s
viscosity (303 K, 101 kPa, x1 = 0.4983): 0.5617 ± 0.0042 mPa·s
viscosity (303 K, 101 kPa, x1 = 0.5959): 0.5628 ± 0.0043 mPa·s
viscosity (303 K, 101 kPa, x1 = 0.7005): 0.5641 ± 0.0044 mPa·s
viscosity (303 K, 101 kPa, x1 = 0.8019): 0.5666 ± 0.0045 mPa·s
viscosity (303 K, 101 kPa, x1 = 0.8988): 0.5684 ± 0.0047 mPa·s
viscosity (303.15 K, 101.33 kPa, x2 = 0.2202): 0.557 ± 0.0051 mPa·s
viscosity (303.15 K, 101.33 kPa, x2 = 0.42): 0.55 ± 0.005 mPa·s
viscosity (303.15 K, 101.33 kPa, x2 = 0.7393): 0.55 ± 0.005 mPa·s
viscosity (303.15 K, 101.33 kPa, x2 = 0.8207): 0.553 ± 0.0051 mPa·s
viscosity (313 K, 101 kPa, x1 = 0.1002): 0.4975 ± 0.0036 mPa·s
viscosity (313 K, 101 kPa, x1 = 0.2018): 0.4982 ± 0.0036 mPa·s
viscosity (313 K, 101 kPa, x1 = 0.3012): 0.4993 ± 0.0037 mPa·s
viscosity (313 K, 101 kPa, x1 = 0.397): 0.502 ± 0.0038 mPa·s
viscosity (313 K, 101 kPa, x1 = 0.4983): 0.5024 ± 0.0039 mPa·s
viscosity (313 K, 101 kPa, x1 = 0.5959): 0.5039 ± 0.0039 mPa·s
viscosity (313 K, 101 kPa, x1 = 0.7005): 0.5071 ± 0.004 mPa·s
viscosity (313 K, 101 kPa, x1 = 0.8019): 0.509 ± 0.0042 mPa·s
viscosity (313 K, 101 kPa, x1 = 0.8988): 0.5122 ± 0.0043 mPa·s
viscosity (313.15 K, 101.33 kPa, x2 = 0.2202): 0.497 ± 0.0046 mPa·s
viscosity (313.15 K, 101.33 kPa, x2 = 0.42): 0.493 ± 0.0046 mPa·s
viscosity (313.15 K, 101.33 kPa, x2 = 0.7393): 0.49 ± 0.0046 mPa·s
viscosity (313.15 K, 101.33 kPa, x2 = 0.8207): 0.485 ± 0.0045 mPa·s
viscosity (318 K, 101.3 kPa, x2 = 0.1977): 0.4856 ± 0.019 mPa·s
viscosity (318 K, 101.3 kPa, x2 = 0.3756): 0.4775 ± 0.019 mPa·s
viscosity (318 K, 101.3 kPa, x2 = 0.5821): 0.4739 ± 0.019 mPa·s
viscosity (318 K, 101.3 kPa, x2 = 0.7212): 0.472 ± 0.019 mPa·s
viscosity (318 K, 101.3 kPa, x2 = 0.8882): 0.4718 ± 0.019 mPa·s
viscosity (323 K, 101 kPa, x1 = 0.1002): 0.4435 ± 0.0033 mPa·s
viscosity (323 K, 101 kPa, x1 = 0.2018): 0.4443 ± 0.0033 mPa·s
viscosity (323 K, 101 kPa, x1 = 0.3012): 0.4462 ± 0.0034 mPa·s
viscosity (323 K, 101 kPa, x1 = 0.397): 0.4502 ± 0.0035 mPa·s
viscosity (323 K, 101 kPa, x1 = 0.4983): 0.4513 ± 0.0035 mPa·s
viscosity (323 K, 101 kPa, x1 = 0.5959): 0.4527 ± 0.0036 mPa·s
viscosity (323 K, 101 kPa, x1 = 0.7005): 0.4554 ± 0.0037 mPa·s
viscosity (323 K, 101 kPa, x1 = 0.8019): 0.4585 ± 0.0038 mPa·s
viscosity (323 K, 101 kPa, x1 = 0.8988): 0.4596 ± 0.0039 mPa·s
viscosity (323.15 K, 101.33 kPa, x2 = 0.2202): 0.45 ± 0.0043 mPa·s
viscosity (323.15 K, 101.33 kPa, x2 = 0.42): 0.447 ± 0.0042 mPa·s
viscosity (323.15 K, 101.33 kPa, x2 = 0.7393): 0.442 ± 0.0042 mPa·s
viscosity (323.15 K, 101.33 kPa, x2 = 0.8207): 0.435 ± 0.0042 mPa·s
